Like-named read-outs stand apart in the source and are kept apart here. Blank lines part the entries; values can stand above or below the molecule they belong to.
Experiments:
[1] = cited from earlier work
[2] = system: MDCKII-MDR1 cells; details: cited from earlier work
[3] = Metabolic stability in hepatocytes; format: in vitro ADME, human; details: for hepatocyte CLint: both sexes, read-out: HEPClint (H); for hepatocyte CLint / t1/2 (H): human hepatocytes
Description: (§1) Metabolic stability in hepatocytes
(§2) Table S4. Hepatocyte details used in the hepatocyte stability assay.
(§3) Human Hepatocytes, Mixed-Gender BiolVT (Cat No. X008001)
(§4) Mouse Hepatocytes, Male-Gender BiolVT (Cat No. M005052)

[4] = Lipophilicity logD7.4; format: physicochemical; details: pH 7.4
[5] = in vitro; details: human, Caco-2
[6] = target: cSRC wt (Homo sapiens, UniProt P12931); test: KinaseProfiler enzymatic radiometric kinase assay
Sequence of cSRC wt (P12931 whole entry): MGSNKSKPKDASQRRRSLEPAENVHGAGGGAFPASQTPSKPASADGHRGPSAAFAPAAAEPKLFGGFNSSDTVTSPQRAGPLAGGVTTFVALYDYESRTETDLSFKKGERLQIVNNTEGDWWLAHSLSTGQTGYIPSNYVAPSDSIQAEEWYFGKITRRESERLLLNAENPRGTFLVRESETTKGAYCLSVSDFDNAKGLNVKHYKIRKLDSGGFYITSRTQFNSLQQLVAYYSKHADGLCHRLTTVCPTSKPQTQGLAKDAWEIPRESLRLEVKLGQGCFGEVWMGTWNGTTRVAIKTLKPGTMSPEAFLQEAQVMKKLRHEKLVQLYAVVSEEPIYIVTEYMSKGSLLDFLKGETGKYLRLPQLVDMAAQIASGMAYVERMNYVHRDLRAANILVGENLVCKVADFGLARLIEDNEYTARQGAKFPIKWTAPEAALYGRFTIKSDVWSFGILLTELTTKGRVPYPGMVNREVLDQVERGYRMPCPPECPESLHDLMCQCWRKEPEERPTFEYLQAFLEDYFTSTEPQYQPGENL

[7] = target: BCR-ABL1 wt (Homo sapiens, UniProt P00519); test: KinaseProfiler enzymatic radiometric kinase assay; details: read-out: Kinase IC50 BCR-ABL1 wt; [ATP] = 10 µM, n = 2
Sequence of BCR-ABL1 wt (P00519 27-1130 limits assumed): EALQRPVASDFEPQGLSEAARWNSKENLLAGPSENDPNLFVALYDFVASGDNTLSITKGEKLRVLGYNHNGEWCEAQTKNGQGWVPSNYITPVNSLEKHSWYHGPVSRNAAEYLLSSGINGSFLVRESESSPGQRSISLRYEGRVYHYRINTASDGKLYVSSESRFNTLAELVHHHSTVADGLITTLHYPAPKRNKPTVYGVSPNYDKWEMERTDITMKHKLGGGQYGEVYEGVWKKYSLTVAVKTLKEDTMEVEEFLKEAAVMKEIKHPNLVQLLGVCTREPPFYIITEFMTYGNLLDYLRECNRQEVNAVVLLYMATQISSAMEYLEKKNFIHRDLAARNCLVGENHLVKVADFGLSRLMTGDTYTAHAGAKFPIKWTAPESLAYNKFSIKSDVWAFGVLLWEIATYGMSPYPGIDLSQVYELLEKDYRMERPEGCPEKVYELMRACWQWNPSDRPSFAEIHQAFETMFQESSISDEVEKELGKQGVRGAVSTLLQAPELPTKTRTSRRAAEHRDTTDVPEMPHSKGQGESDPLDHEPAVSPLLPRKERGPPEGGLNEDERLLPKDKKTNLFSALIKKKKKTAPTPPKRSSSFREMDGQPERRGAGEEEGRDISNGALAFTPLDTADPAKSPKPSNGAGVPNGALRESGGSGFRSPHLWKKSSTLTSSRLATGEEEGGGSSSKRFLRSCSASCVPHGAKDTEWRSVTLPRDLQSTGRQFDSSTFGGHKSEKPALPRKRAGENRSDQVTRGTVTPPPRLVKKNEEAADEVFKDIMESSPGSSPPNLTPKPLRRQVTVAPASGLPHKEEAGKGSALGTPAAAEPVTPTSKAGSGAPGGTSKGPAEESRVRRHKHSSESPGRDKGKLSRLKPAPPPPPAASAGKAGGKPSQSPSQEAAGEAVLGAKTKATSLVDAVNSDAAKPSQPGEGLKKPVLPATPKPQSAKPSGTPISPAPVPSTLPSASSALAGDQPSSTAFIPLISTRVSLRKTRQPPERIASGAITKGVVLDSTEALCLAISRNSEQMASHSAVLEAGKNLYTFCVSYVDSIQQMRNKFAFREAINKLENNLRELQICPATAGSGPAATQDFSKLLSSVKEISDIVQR

[8] = target: mutant BCR-ABL1 kinases; test: Biochemical kinase inhibition, summary statements; parameters: species or system human; details: read-out: IC50 against mutant BCR-ABL1 kinases
[9] = system: MDCKII-MDR1 cells; test: MDCKII-MDR1 permeability; details: for Recovery% (BL-AP) / efflux ratio: Table S7
[10] = system: Caco-2 cells; test: Caco-2 permeability
[11] = target: T1, hERG potassium ion channel (Homo sapiens, UniProt Q12809); test: hERG safety evaluation by manual patch-clamp (HEK 293); format: cell-based; details: mean ± SEM in Table S11
T1 construct: host or cells: HEK 293
T1 sequence (Q12809 whole entry): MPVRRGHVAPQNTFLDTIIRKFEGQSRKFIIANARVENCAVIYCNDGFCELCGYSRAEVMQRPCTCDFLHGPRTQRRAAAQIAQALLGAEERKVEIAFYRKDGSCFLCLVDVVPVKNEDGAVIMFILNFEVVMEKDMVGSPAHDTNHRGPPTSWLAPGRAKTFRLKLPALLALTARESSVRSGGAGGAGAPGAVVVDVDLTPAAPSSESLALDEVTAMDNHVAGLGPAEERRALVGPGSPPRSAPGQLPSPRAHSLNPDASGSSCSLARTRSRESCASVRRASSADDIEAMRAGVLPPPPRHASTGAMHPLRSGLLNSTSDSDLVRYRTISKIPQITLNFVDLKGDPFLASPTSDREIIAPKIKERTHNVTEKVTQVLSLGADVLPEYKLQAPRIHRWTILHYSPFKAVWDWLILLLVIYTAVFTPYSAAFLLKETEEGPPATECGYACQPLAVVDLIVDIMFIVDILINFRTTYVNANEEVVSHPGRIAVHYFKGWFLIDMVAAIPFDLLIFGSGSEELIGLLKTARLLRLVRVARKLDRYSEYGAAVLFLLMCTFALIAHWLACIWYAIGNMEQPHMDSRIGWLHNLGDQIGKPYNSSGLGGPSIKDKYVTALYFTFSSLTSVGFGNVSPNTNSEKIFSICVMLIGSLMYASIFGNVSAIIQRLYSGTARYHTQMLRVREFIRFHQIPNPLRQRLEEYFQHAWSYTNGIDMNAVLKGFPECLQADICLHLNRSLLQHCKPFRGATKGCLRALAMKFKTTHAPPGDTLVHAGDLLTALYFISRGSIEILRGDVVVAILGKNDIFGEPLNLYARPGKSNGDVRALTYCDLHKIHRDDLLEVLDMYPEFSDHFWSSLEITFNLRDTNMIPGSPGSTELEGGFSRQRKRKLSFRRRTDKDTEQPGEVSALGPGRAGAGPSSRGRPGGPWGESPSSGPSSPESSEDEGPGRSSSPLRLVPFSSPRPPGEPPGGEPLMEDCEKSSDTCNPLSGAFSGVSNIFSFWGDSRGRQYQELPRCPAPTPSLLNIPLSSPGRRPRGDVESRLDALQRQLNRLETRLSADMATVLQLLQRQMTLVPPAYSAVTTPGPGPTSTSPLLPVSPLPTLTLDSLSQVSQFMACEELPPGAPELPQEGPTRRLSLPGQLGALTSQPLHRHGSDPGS

[12] = Aqueous solubility; format: physicochemical; details: pH 7.4
[13] = in vitro; details: dog, MDCK-MDR1
[14] = system: MDR1 (P-gp); test: in vitro; details: dog, MDCK-MDR1
[15] = system: MDR1; test: in vitro; details: dog, MDCK-MDR1
[16] = Plasma protein binding by equilibrium dialysis; format: in vitro ADME; details: human plasma; for fraction unbound / recovery / remaining at 6 h: both sexes
[17] = Plasma protein binding by equilibrium dialysis; format: in vitro ADME; details: mouse plasma; for recovery / remaining at 6 h / fraction unbound: both sexes, CD-1; for fraction unbound: read-out: %Bound (converted)
[18] = system: K562 cells; test: Cell viability assay (CellTiter-Glo); format: cell-based, human
[19] = Metabolic stability in hepatocytes; format: in vitro ADME, mouse
Description: as §1, §2, §3, §4

[20] = system: P-glycoprotein (P-gp); details: Figure 1A; cited from earlier work
[21] = cited from earlier work; remark: listed apart in the source

SMILES: COc1cc(Nc2c(C#N)cnc3cc(OCCON4CCN(C)CC4)c(OC)cc23)c(Cl)cc1Cl [5a]
Micronucleus [1]: Negative

SMILES: COc1cc2ncnc(Nc3ccc(F)c(Cl)c3)c2cc1OCCON1CCN(C)CC1 [6a]
MDCKII-MDR1 Efflux Ratio [2]: 8.7
P-gp efflux status [2]: P-gp Substrate

Remaining Percentages ([3]; 0.5 min): 100.00%
Remaining Percentages ([3]; 15 min): 87.31%
Remaining Percentages ([3]; 30 min): 80.64%
Remaining Percentages ([3]; 60 min): 60.46%
Remaining Percentages ([3]; 90 min): 46.43%
Remaining Percentages ([3]; 120 min): 35.84%
hepatocyte CLint [3]: 17.2 µL/min/1e6 cells
t1/2 (H) [3]: 1.34 h
logD [4]: 2.7
Papp A→B [5]: 6.46 ×10⁻⁶ cm/s
Papp B→A [5]: 23.1 ×10⁻⁶ cm/s
efflux ratio [5]: 3.6
recovery [5]: 76.2%
IC50 [6]: 14 nM
IC50 [7]: 20 nM
IC50 [8]: ≥ 15 nM
enhancement in permeability in MDCKII-MDR1 cells relative to bosutinib [9]: 31 fold
Recovery% (BL-AP) [9]: 91.60%
efflux ratio [9]: 3.22
Recovery% (BL-AP) ([10]; Table S9): 87.19%
efflux ratio ([10]; Table S9): 3.58
Caco-2 Papp (a-b) [10]: 6.5 ×10⁻⁶ cm/s
Caco-2 Papp (b-a) [10]: 23.1 ×10⁻⁶ cm/s
Aq. Sol. [12]: 123 µM
recovery [13]: 95%
Papp A→B [14]: 12.5 ×10⁻⁶ cm/s
Papp B→A [14]: 39 ×10⁻⁶ cm/s
Papp A→B [15]: 12.5 ×10⁻⁶ cm/s
Papp B→A [15]: 39 ×10⁻⁶ cm/s
efflux ratio [15]: 3.1
fraction unbound [16]: 0.0737
recovery [16]: 92.5%
remaining at 6 h [16]: 97.8%
%Unbound [16]: 7.37%
recovery [17]: 92%
remaining at 6 h [17]: 96.7%
fraction unbound [17]: 0.119
%Unbound [17]: 11.93%
SMILES: COc1cc2c(Nc3cccc(OC)c3Cl)c(C#N)cnc2cc1OCCON1CCN(C)CC1 [12a, 4-((2-Chloro-3-methoxyphenyl)amino)-6-methoxy-7-(2-((4-methylpiperazin-1-yl)oxy)ethoxy)quinoline-3-carbonitrile]
IC50 [11]: 5160 nM

Remaining Percentages ([3]; 0.5 min): 100.00%
Remaining Percentages ([3]; 15 min): 97.02%
Remaining Percentages ([3]; 30 min): 95.67%
Remaining Percentages ([3]; 60 min): 80.41%
Remaining Percentages ([3]; 90 min): 67.22%
Remaining Percentages ([3]; 120 min): 54.89%
hepatocyte CLint [3]: 10.3 µL/min/1e6 cells
t1/2 (H) [3]: 2.243 h
logD [4]: 2.6
Papp A→B [5]: 2.72 ×10⁻⁶ cm/s
Papp B→A [5]: 33.6 ×10⁻⁶ cm/s
efflux ratio [5]: 12.4
recovery [5]: 84.8%
IC50 [6]: 34 nM
IC50 [7]: 19 nM
IC50 [8]: ≥ 15 nM
Recovery% (BL-AP) [9]: 105.61%
efflux ratio [9]: 7.26
Recovery% (BL-AP) ([10]; Table S9): 92.56%
efflux ratio ([10]; Table S9): 12.36
Caco-2 Papp (a-b) [10]: 2.7 ×10⁻⁶ cm/s
Caco-2 Papp (b-a) [10]: 33.6 ×10⁻⁶ cm/s
Aq. Sol. [12]: 29 µM
recovery [13]: 93.1%
Papp A→B [14]: 7.5 ×10⁻⁶ cm/s
Papp B→A [14]: 54.4 ×10⁻⁶ cm/s
Papp A→B [15]: 7.53 ×10⁻⁶ cm/s
Papp B→A [15]: 54.4 ×10⁻⁶ cm/s
efflux ratio [15]: 7.3
fraction unbound [16]: 0.13
recovery [16]: 87.8%
remaining at 6 h [16]: 98.3%
%Unbound [16]: 12.97%
SMILES: COc1cc2c(Nc3cccc(OC)c3F)c(C#N)cnc2cc1OCCON1CCN(C)CC1 [13a, 4-((2-Fluoro-3-methoxyphenyl)amino)-6-methoxy-7-(2-((4-methylpiperazin-1-yl)oxy)ethoxy)quinoline-3-carbonitrile]

Remaining Percentages ([3]; 0.5 min): 100.00%
Remaining Percentages ([3]; 15 min): 83.13%
Remaining Percentages ([3]; 30 min): 68.12%
Remaining Percentages ([3]; 60 min): 50.16%
Remaining Percentages ([3]; 90 min): 37.41%
Remaining Percentages ([3]; 120 min): 25.52%
hepatocyte CLint [3]: 22.3 µL/min/1e6 cells
t1/2 (H) [3]: 1.04 h
logD [4]: 3.1
Papp A→B [5]: 1.99 ×10⁻⁶ cm/s
Papp B→A [5]: 37.4 ×10⁻⁶ cm/s
efflux ratio [5]: 18.7
IC50 ([18]; Homo sapiens, K562, 72 h, read-out: K562 Cell Line IC50 (95% CI), 72 h, n = 3, unadjusted for FBS): 218 nM
IC50 ([18]; read-out: K562 Cell Line IC50 (95% CI), 72 h, n = 3, unadjusted for FBS): 186 nM
IC50 [6]: 2 nM
IC50 [7]: < 1 nM
Recovery% (BL-AP) [9]: 77.51%
efflux ratio [9]: 6.05
Recovery% (AP-BL) ([10]; Table S9): 65.43%
Recovery% (BL-AP) ([10]; Table S9): 92.37%
efflux ratio ([10]; Table S9): 18.96
Caco-2 Papp (a-b) [10]: 2 ×10⁻⁶ cm/s
Caco-2 Papp (b-a) [10]: 37.4 ×10⁻⁶ cm/s
Aq. Sol. [12]: 7 µM
recovery [13]: 75.4%
Papp A→B [14]: 4.1 ×10⁻⁶ cm/s
Papp B→A [14]: 24.7 ×10⁻⁶ cm/s
Papp A→B [15]: 4.08 ×10⁻⁶ cm/s
Papp B→A [15]: 24.7 ×10⁻⁶ cm/s
efflux ratio [15]: 6
SMILES: COc1cc(Nc2c(C#N)cnc3cc(OCCON4CCN(C)CC4)c(OC)cc23)ccc1Cl [14a]

Remaining Percentages ([3]; 0.5 min): 100.00%
Remaining Percentages ([3]; 15 min): 78.44%
Remaining Percentages ([3]; 30 min): 63.53%
Remaining Percentages ([3]; 60 min): 43.29%
Remaining Percentages ([3]; 90 min): 27.95%
Remaining Percentages ([3]; 120 min): 20.14%
hepatocyte CLint [3]: 26.8 µL/min/1e6 cells
t1/2 (H) [3]: 0.862 h
logD [4]: 3.1
Remaining Percentages ([19]; 0.5 min): 100.00%
Remaining Percentages ([19]; 15 min): 55.53%
Remaining Percentages ([19]; 30 min): 28.57%
Remaining Percentages ([19]; 60 min): 13.26%
Remaining Percentages ([19]; 90 min): 6.75%
Remaining Percentages ([19]; 120 min): 2.89%
Papp A→B [5]: 0.71 ×10⁻⁶ cm/s
Papp B→A [5]: 4.44 ×10⁻⁶ cm/s
efflux ratio [5]: 6.3
recovery [5]: 72.2%
IC50 [6]: 11 nM
IC50 [7]: 6 nM
Recovery% (BL-AP) [9]: 72.29%
Recovery% (BL-AP) ([10]; Table S9): 78.22%
efflux ratio ([10]; Table S9): 6.24
Caco-2 Papp (a-b) [10]: 0.7 ×10⁻⁶ cm/s
Caco-2 Papp (b-a) [10]: 4.4 ×10⁻⁶ cm/s
Aq. Sol. [12]: 0.8 µM
recovery [13]: 84.5%
Papp A→B [14]: 5.9 ×10⁻⁶ cm/s
Papp B→A [14]: 24.8 ×10⁻⁶ cm/s
Papp B→A [15]: 24.8 ×10⁻⁶ cm/s
efflux ratio [15]: 4.2
fraction unbound [16]: 0.0773
recovery [16]: 95.8%
remaining at 6 h [16]: 99.4%
%Unbound [16]: 7.73%
recovery [17]: 95.9%
remaining at 6 h [17]: 106%
fraction unbound [17]: 0.0971
%Unbound [17]: 9.71%
SMILES: COc1cc(Cl)ccc1Nc1c(C#N)cnc2cc(OCCON3CCN(C)CC3)c(OC)cc12 [15a, 4-((4-Chloro-2-methoxyphenyl)amino)-6-methoxy-7-(2-((4-methylpiperazin-1-yl)oxy)ethoxy)quinoline-3-carbonitrile]
IC50 [11]: 4360 nM

SMILES: COc1cc2ncnc(Nc3cccc(Cl)c3F)c2cc1OC(=O)N1CCN(C)C[C@H]1C [AZD3759]
MDCKII-MDR1 Efflux Ratio [2]: 0.4
P-gp efflux status [2]: Not a P-gp Substrate

SMILES: O=C(Nc1ccc(OC(F)(F)Cl)cc1)c1cnc(N2CC[C@@H](O)C2)c(-c2ccn[nH]2)c1 [Asciminib, asciminib]
P-gp efflux status [20]: P-gp Substrate

SMILES: Cc1nc(Nc2ncc(C(=O)Nc3c(C)cccc3Cl)s2)cc(N2CCN(CCO)CC2)n1 [Dasatinib, dasatinib]
P-gp efflux status [20]: P-gp Substrate

Papp A→B [5]: 0.22 ×10⁻⁶ cm/s
Papp B→A [5]: 12.6 ×10⁻⁶ cm/s
efflux ratio [5]: 58.6
recovery [5]: 89.9%
Recovery% (BL-AP) [9]: 93.20%
Recovery% (BL-AP) ([10]; Table S9): 92.72%
recovery [13]: 82.4%
Papp A→B [15]: 0.62 ×10⁻⁶ cm/s
Papp B→A [15]: 13.9 ×10⁻⁶ cm/s
efflux ratio [15]: 22.7
SMILES: C[C@H]1O[C@@H](O[C@H]2[C@@H](O)C[C@H](O[C@H]3[C@@H](O)C[C@H](O[C@H]4CC[C@@]5(C)[C@H](CC[C@@H]6[C@@H]5C[C@@H](O)[C@]5(C)[C@@H](C7=CC(=O)OC7)CC[C@]65O)C4)O[C@@H]3C)O[C@@H]2C)C[C@H](O)[C@@H]1O [Digoxin, reference compound]

SMILES: Cc1ccc(NC(=O)c2ccc(CN3CCN(C)CC3)cc2)cc1Nc1nccc(-c2cccnc2)n1 [Imatinib, imatinib]
P-gp efflux status [20]: P-gp Substrate

Papp A→B [5]: 18.8 ×10⁻⁶ cm/s
Papp B→A [5]: 19.4 ×10⁻⁶ cm/s
recovery [5]: 95.3%
Recovery% (BL-AP) [9]: 99.15%
Recovery% (BL-AP) ([10]; Table S9): 95.54%
recovery [13]: 112%
Papp A→B [15]: 31.6 ×10⁻⁶ cm/s
Papp B→A [15]: 28.1 ×10⁻⁶ cm/s
efflux ratio [15]: 0.89
SMILES: COCCc1ccc(OCC(O)CNC(C)C)cc1 (stereo not shown) [Metoprolol, reference compound]

SMILES: Fc1c2c(cc3ncnc(Nc4ccccc4)c13)OCCO2 [compound 9]
Abraham ANMR Value [21]: 0.10

SMILES: COc1c2c(cc3ncnc(Nc4ccccc4)c13)OCCO2 [compound 10]
Abraham ANMR Value [21]: 0.02

Source: article PMC11472320, “Computationally Driven Discovery of a BCR-ABL1 Kinase Inhibitor with Activity in Multidrug-Resistant Chronic Myeloid Leukemia” (Journal of Medicinal Chemistry, 2024)
